Measurements from patent US11390606B2, “Pyridazinone compounds and uses thereof” (Edgewise Therapeutics, Inc., priority 2018, dated 2022).

The compounds below were run against T1, skeletal myofibrils (Rabbit Psoas), myosin ATPase activity (assay: Skeletal Myofibril ATPase Assay). Details: skeletal myofibrils (Rabbit Psoas 0.25 mg/mL), PK/LDH-coupled NADH absorbance at 340 nm.
T1 construct: Rabbit Psoas Prep 11 (0.25 mg/mL)
Assay type: biochemical
Experimental: Overview: Myosin ATPase activity is assessed by using a coupled reaction system, in which ADP generated by the myosin ATPase function is coupled to the disappearance of NADH through the pyruvate kinase/lactate dehydrogenase (PK-LDH) system. Myosin ATPase activity produces ADP, which is used as a substrate for PK to produce pyruvate and regenerate ATP. The pyruvate is then used as a substrate by LDH to oxidize NADH to NAD+. The rate of the reaction is monitored through the time-dependent disappearance of NADH using absorbance at 340 nm. Inhibition of ATPase activity by the assayed compounds is indicated by a reduced rate of NADH loss, relative to vehicle-treated controls, over the experimental time window. To assess the selectivity of the assayed compounds for skeletal myofibrils, the compounds are counter-screened in cardiac myofibrils.
Materials: The following stock solutions and reagents were used in the Skeletal Myofibril ATPase Assay:
Stock Solutions of pCa buffer. Combine PIPES, CaCl2, and EGTA solutions with 70 mL of water. Adjust pH to 7.0 and bring final volume to 100 mL.
Buffer A & Buffer B. Buffers were stored on ice until use.
Skeletal Myofibril ATPase Assay Procedure: BSA, ATP, NADH, PEP, and DTT solutions were thawed at room temperature, then transferred to ice. Pellet-frozen myofibrils were transferred with approximately twice the required volume into a sufficiently large tube and capped. Myofibrils were thawed by rolling in a water bath for approximately 15 min at room temperature and cooled on ice. Buffers A and B were prepared by adjusting volumes as necessary for required number of wells and stored on ice. 0.5 μL of the compounds to be assayed were added into wells. 25 μL of Buffer A was dispensed into the wells, followed by 25 μL of Buffer B. The wells were measured for absorbance at 340 nm, using a kinetic protocol in which the wells are read every 1.5-2 min for 45 min. The slope of the data was approximated by subtracting the minimum absorbance value from the maximum value for each well. This was accomplished either in the SoftMax Pro software or in a spreadsheet program such as Excel. Using GraphPad Prism 8.0, the data was normalized by assigning a value of 100% to the 1% DMSO vehicle wells. Typically, a normalized 0% value was simply assigned to a (Max−Min) value of 0. The normalized data was fit to a Four Parameter Logistic sigmoidal equation, constraining the bottom to be 0 or greater. Compounds of Table 1 to 4 were tested and results of the assay appear in Table 5 herein. A=IC50 is less than or equal to 10 μM; B=IC50 is greater than 10 μM and less than 100 μM; C=IC50 is greater than 100 μM.

Row | SMILES | IC50 [µM]
1 | O=c1ccc(-c2cnc(OCC(F)(F)F)nc2)nn1C1(c2ccccc2)CC1 [Compound 54, 2-(1-phenylcyclopropyl)-6-(2-(2,2,2-trifluoroethoxy)pyrimidin-5-yl)pyridazin-3(2H)-one] | < 10
2 | CN1CCC(F)(COc2ccc(-c3ccc(=O)n(Cc4ccc(Cl)cc4)n3)cn2)CC1 [Compound 28, 2-(4-chlorobenzyl)-6-(6-((4-fluoro-1-methylpiperidin-4-yl)methoxy)pyridin-3-yl)pyridazin-3(2H)-one] | > 100
3 | O=c1ccc(-c2ccc(OC(F)F)nc2)nn1Cc1ccc(F)c(Cl)c1 [Compound 20, 2-(3-chloro-4-fluorobenzyl)-6-(6-(difluoromethoxy)pyridin-3-yl)pyridazin-3(2H)-one] | < 10
4 | O=c1ccc(-c2cnc(N3CC(F)(F)C3)nc2)nn1Cc1ccc(Cl)cc1 [Compound 44, 2-(4-chlorobenzyl)-6-(2-(3,3-difluoroazetidin-1-yl)pyrimidin-5-yl)pyridazin-3(2H)-one] | < 10
5 | O=c1ccc(-c2cnc(NCC(F)(F)F)nc2)nn1Cc1ccc(Cl)cc1 [Compound 6, 2-(4-chlorobenzyl)-6-(2-((2,2,2-trifluoroethyl)amino)pyrimidin-5-yl)pyridazin-3(2H)-one] | < 10
6 | O=c1ccc(-c2cnc(N3CC(OC(F)F)C3)nc2)nn1Cc1ccc(Cl)cc1 [Compound 9, 2-(4-chlorobenzyl)-6-(2-(3-(difluoromethoxy)azetidin-1-yl)pyrimidin-5-yl)pyridazin-3(2H)-one] | < 10
7 | O=c1ccc(-c2ccc(C3CC3)cc2)nn1Cc1ccc(Cl)cc1 [Compound 104, 2-(4-chlorobenzyl)-6-(4-cyclopropylphenyl)pyridazin-3(2H)-one] | < 10
8 | CC(=O)Nc1ncc(-c2ccc(=O)n(Cc3ccc(Cl)cc3)n2)cn1 [Compound 26, N-(5-(1-(4-chlorobenzyl)-6-oxo-1,6-dihydropyridazin-3-yl)pyrimidin-2-yl)acetamide] | < 10
9 | O=c1ccc(-c2ccc(OC(F)F)nc2)nn1[C@@H](CO)c1ccc(Cl)cc1 [Compound 53, (R)-2-(1-(4-chlorophenyl)-2-hydroxyethyl)-6-(6-(difluoromethoxy)pyridin-3-yl)pyridazin-3(2H)-one] | > 100
10 | O=c1ccc(-c2cnc(OCC(F)(F)F)nc2)nn1Cc1ccc(CO)cc1 [Compound 48, 2-(4-(hydroxymethyl)benzyl)-6-(2-(2,2,2-trifluoroethoxy)pyrimidin-5-yl)pyridazin-3(2H)-one] | < 10
11 | O=c1ccc(-c2ccc(OC(F)(F)F)nc2)nn1Cc1ccc(Cl)cc1 [Compound 13, 2-(4-chlorobenzyl)-6-(6-(trifluoromethoxy)pyridin-3-yl)pyridazin-3(2H)-one] | < 10
12 | O=c1ccc(-c2ccc(OCC3(F)COC3)nc2)nn1Cc1ccc(Cl)cc1 [Compound 21, 2-(4-chlorobenzyl)-6-(6-((3-fluorooxetan-3-yl)methoxy)pyridin-3-yl)pyridazin-3(2H)-one] | < 10
13 | O=c1ccc(-c2cnc(OCC(F)(F)F)nc2)nn1Cc1ccccc1 [Compound 31, 2-benzyl-6-(2-(2,2,2-trifluoroethoxy)pyrimidin-5-yl)pyridazin-3(2H)-one] | < 10
14 | O=c1ccc(-c2cnc(N3CC(C(F)(F)F)C3)nc2)nn1Cc1ccc(Cl)cc1 [Compound 4, 2-(4-chlorobenzyl)-6-(2-(3-(trifluoromethyl)azetidin-1-yl)pyrimidin-5-yl)pyridazin-3(2H)-one] | < 10
15 | O=c1ccc(-c2ccc(OC(F)F)nc2)nn1Cc1ccc(Cl)cc1 [Compound 19, 2-(4-chlorobenzyl)-6-(6-(difluoromethoxy)pyridin-3-yl)pyridazin-3(2H)-one] | < 10
16 | O=c1ccc(-c2cnc(OCC(F)(F)F)nc2)nn1Cc1cccc(F)c1 [Compound 35, 2-(3-fluorobenzyl)-6-(2-(2,2,2-trifluoroethoxy)pyrimidin-5-yl)pyridazin-3(2H)-one] | < 10

Results, then the compound that gave them:

Row | IC50 [µM] | SMILES
17 | > 100 | Cn1ncc2cc(-c3ccc(=O)n(Cc4ccc(Cl)cc4)n3)ccc21 [Compound 119, 2-(4-chlorobenzyl)-6-(1-methyl-1H-indazol-5-yl)pyridazin-3(2H)-one]
18 | < 10 | C[C@H]1Cc2cc(-c3ccc(=O)n(Cc4ccc(Cl)cc4)n3)ccc2O1 [Compound 110, (S)-2-(4-chlorobenzyl)-6-(2-methyl-2,3-dihydrobenzofuran-5-yl)pyridazin-3(2H)-one]
19 | < 10 | O=c1ccc(-c2ccc(Cl)cc2)nn1Cc1ccccc1F [Compound 309, 6-(4-chlorophenyl)-2-(2-fluorobenzyl)pyridazin-3(2H)-one]
20 | < 10 | O=c1ccc(-c2ccc(Cl)cc2)nn1Cc1ccc(Cl)cc1 [Compound 303, 2-(4-chlorobenzyl)-6-(4-chlorophenyl)pyridazin-3(2H)-one]
21 | < 10 | CC(=O)Nc1ccc(-c2ccc(=O)n(Cc3ccc(Cl)cc3)n2)cc1 [Compound 107, N-(4-(1-(4-chlorobenzyl)-6-oxo-1,6-dihydropyridazin-3-yl)phenyl)acetamide]
22 | < 10 | CNc1ccc(-c2ccc(=O)n(Cc3ccc(Cl)cc3)n2)cc1 [Compound 123, 2-(4-chlorobenzyl)-6-(4-(methylamino)phenyl)pyridazin-3(2H)-one]
23 | < 10 | O=c1ccc(-c2ccc(Br)cc2)nn1Cc1ccccc1 [Compound 239, 2-benzyl-6-(4-bromophenyl)pyridazin-3(2H)-one]
24 | > 100 | CC1(C)C(=O)Nc2ccc(-c3ccc(=O)n(Cc4ccc(Cl)cc4)n3)cc21 [Compound 121, 5-(1-(4-chlorobenzyl)-6-oxo-1,6-dihydropyridazin-3-yl)-3,3-dimethylindolin-2-one]
25 | < 10 | O=c1ccc(-c2ccc(OC(F)(F)F)cc2)nn1Cc1ccc(Cl)cc1 [Compound 105, 2-(4-chlorobenzyl)-6-(4-(trifluoromethoxy)phenyl)pyridazin-3(2H)-one]
26 | 10 to 100 | O=c1ccc(-c2ccc(F)cc2)nn1Cc1ccc(F)cc1 [Compound 244, 2-(4-fluorobenzyl)-6-(4-fluorophenyl)pyridazin-3(2H)-one]
27 | 10 to 100 | O=c1ccc(-c2ccc(F)cc2)nn1Cc1ccccc1F [Compound 243, 2-(2-fluorobenzyl)-6-(4-fluorophenyl)pyridazin-3(2H)-one]
28 | < 10 | COCCOc1ccc(-c2ccc(=O)n(Cc3ccc(Cl)cc3)n2)cc1 [Compound 106, 2-(4-chlorobenzyl)-6-(4-(2-methoxyethoxy)phenyl)pyridazin-3(2H)-one]
29 | < 10 | Cc1cccc(Cn2nc(-c3ccc(Cl)cc3)ccc2=O)c1 [Compound 314, 6-(4-chlorophenyl)-2-(3-methylbenzyl)pyridazin-3(2H)-one]
30 | 10 to 100 | COc1ccc(Cn2nc(-c3ccc(F)cc3)ccc2=O)cc1 [Compound 240, 6-(4-fluorophenyl)-2-(4-methoxybenzyl)pyridazin-3(2H)-one]
31 | > 100 | COc1ccc(Cn2nc(-c3ccc(SC)cc3)ccc2=O)cc1 [Compound 201, 2-(4-methoxybenzyl)-6-(4-(methylthio)phenyl)pyridazin-3(2H)-one]
32 | < 10 | CCCOc1ccc(-c2ccc(=O)n(Cc3ccc(Cl)cc3)n2)cc1 [Compound 218, 2-(4-chlorobenzyl)-6-(4-propoxyphenyl)pyridazin-3(2H)-one]
33 | < 10 | C[C@@H]1Cc2cc(-c3ccc(=O)n(Cc4ccc(Cl)cc4)n3)ccc2O1 [Compound 111, (R)-2-(4-chlorobenzyl)-6-(2-methyl-2,3-dihydrobenzofuran-5-yl)pyridazin-3(2H)-one]
34 | > 100 | CN(C)S(=O)(=O)c1ccc(Cn2nc(-c3ccc(OC(F)F)cc3)ccc2=O)cc1 [Compound 118, 4-((3-(4-(difluoromethoxy)phenyl)-6-oxopyridazin-1(6H)-yl)methyl)-N,N-dimethyl-benzenesulfonamide]
35 | < 10 | O=c1ccc(-c2ccc3c(c2)CCO3)nn1Cc1ccc(Cl)cc1 [Compound 112, 2-(4-chlorobenzyl)-6-(2,3-dihydrobenzofuran-5-yl)pyridazin-3(2H)-one]
36 | < 10 | O=c1ccc(-c2ccc(Cl)cc2)nn1Cc1ccccc1 [Compound 302, 2-benzyl-6-(4-chlorophenyl)pyridazin-3(2H)-one]
37 | < 10 | O=c1ccc(-c2ccc(Cl)cc2)nn1Cc1ccccc1Cl [Compound 310, 2-(2-chlorobenzyl)-6-(4-chlorophenyl)pyridazin-3(2H)-one]
38 | < 10 | COc1ccc(Cn2nc(-c3ccc(Br)cc3)ccc2=O)cc1 [Compound 237, 6-(4-bromophenyl)-2-(4-methoxybenzyl)pyridazin-3(2H)-one]
